Assays:
PAN02-luc = experiment: Pancreatic cancer liver metastatic mouse model; type: in vivo, C57BL/6 mice; conditions: for mice alive: n = 5
Method: C57BL/6 mice were intrasplenically injected with luciferase-expressing PAN02 cells (PAN02-luc) in matrigel and tumor growth was assessed (A) and quantified (B) by bioluminescent imaging weekly. […] C After 4 weeks, mice were sacrificed and livers were imaged. D The body weight of C57BL/6 tumor-bearing mice were measured weekly.
C57BL/6, male, 8-week-old mice were obtained from the Animal Center of East China Normal University. All animal experimental protocols were approved by the Animal Investigation Committee of the Institute of Biomedical Sciences, East China Normal University. PAN02 cells that stably expressed luciferase (PAN02-luc) were embedded in Matrigel (BD Biosciences) and intrasplenically injected into mice. Tumors were allowed to grow for 1 week and treatment of the mice with either compound or control was started after grouping of the mice according to average bioluminescence. The IVIS Imaging System (Xenogen Corporation) was used to monitor pancreatic tumor growth and metastasis. Images and measurements of bioluminescent signals were acquired and analyzed using Living Image and Xenogen software.

STAT3-SH2 = target: T1, STAT3-SH2 (Homo sapiens, UniProt P40763); experiment: Microscale thermophoresis (MST) assay, STAT3-SH2; type: binding
T1 construct: made in house
T1 sequence (P40763 580-670 limits assumed): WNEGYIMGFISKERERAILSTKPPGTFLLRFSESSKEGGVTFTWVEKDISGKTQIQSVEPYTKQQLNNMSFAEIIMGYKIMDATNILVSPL
Source text: (§1) Fig. 3 N4 interacts with the STAT3-SH2 domain and interferes with the STAT3-EGFR and STAT3-NF-κB interactions. […] C–E The binding between N4 and STAT3 was examined in (C) SPR and (D) MST experiments. His-STAT3^127-722 protein was purified and used to examine the affinity between STAT3 and N4. (E) The binding between N4 and STAT3^SH2 was confirmed in MST assays. STAT3-SH2 protein was purified and labeled. N4 was serially diluted and mixed with equal volumes of labeled STAT3^SH2 protein. The MST signal was measured, and the data were analyzed by MO analysis software. F, G The FLAG-tag and HA-tag STAT3 expression plasmid was transfected into 293 T cells, followed by the addition of the indicated concentrations of N4. After 24 h, cells were lysed, and immunoprecipitation experiments were performed as described in Materials and Methods. H N4 represses STAT3 dimerization in pancreatic cancer cells. I After a 24 h treatment with 2 μM N4, pancreatic cancer cells were stimulated with IL-6 for 30 min. Cell lysates were immunoprecipitated with STAT3 overnight. […]
(§2) The MST assay was previously described. Binding affinities of N4 with the purified His-STAT3-SH2 were measured using the Monolith NT.115 device (NanoTemper Technologies). […] The samples were then loaded into premium capillaries (NanoTemper Technologies) and measured using the Monolith NT.115 device. […]

STAT3 = experiment: STAT3-response dual luciferase reporter assay; type: cell-based
Method: Fig. 1 N4 inhibits STAT3 dimerization and transcription in vitro. A Purified STAT3 protein was incubated with labeled phosphopeptide, 5-carboxyfluorescein-GpYLPQTV-NH2 for 1 h at 37 °C. FP signals were measured, and the data were analyzed using Graph Pad 7.0 software. B Chemical structure of N4. C Different concentrations of N4 were pre-incubated with recombined STAT3 protein for 1 h, then 10 nM of labeled peptide was added for 1 h. The IC50 was calculated using Graph Pad 7.0. D, E, F STAT3 specific luciferase reporter plasmid was transiently transfected into 293T cells. After 24 h transfection, IL-6 (20 ng/mL), OSM (10 ng/mL), and V-SRC expression plasmid (200 ng) was used to activate STAT3 luciferase activity, N4 was added at the indicated concentrations. Renilla luciferase activities were used as an internal reference (n = 2 per group). The values are expressed as mean ± SD and the bars indicate statistically significant differences (t test), *P < 0.05; **P < 0.01; ***P < 0.001.
Dual luciferase assay was performed as previously described. […] Renilla and firefly luciferase activities were determined by luminometry using the Dual Luciferase Reporter Assay System (Promega). The ratio was calculated.
Supplementary Figure 5. […] The values are expressed as mean ± SD and the bars indicate statistically significant differences (t-test), *P < 0.05; **P < 0.01; ***P < 0.001. […]

[1] = target: His-STAT3^127-722 protein (Homo sapiens, UniProt P40763); experiment: Microscale thermophoresis (MST) assay, STAT3^127–722; type: binding; parameters: made in house
Chain of His-STAT3^127-722 protein (P40763 127-722): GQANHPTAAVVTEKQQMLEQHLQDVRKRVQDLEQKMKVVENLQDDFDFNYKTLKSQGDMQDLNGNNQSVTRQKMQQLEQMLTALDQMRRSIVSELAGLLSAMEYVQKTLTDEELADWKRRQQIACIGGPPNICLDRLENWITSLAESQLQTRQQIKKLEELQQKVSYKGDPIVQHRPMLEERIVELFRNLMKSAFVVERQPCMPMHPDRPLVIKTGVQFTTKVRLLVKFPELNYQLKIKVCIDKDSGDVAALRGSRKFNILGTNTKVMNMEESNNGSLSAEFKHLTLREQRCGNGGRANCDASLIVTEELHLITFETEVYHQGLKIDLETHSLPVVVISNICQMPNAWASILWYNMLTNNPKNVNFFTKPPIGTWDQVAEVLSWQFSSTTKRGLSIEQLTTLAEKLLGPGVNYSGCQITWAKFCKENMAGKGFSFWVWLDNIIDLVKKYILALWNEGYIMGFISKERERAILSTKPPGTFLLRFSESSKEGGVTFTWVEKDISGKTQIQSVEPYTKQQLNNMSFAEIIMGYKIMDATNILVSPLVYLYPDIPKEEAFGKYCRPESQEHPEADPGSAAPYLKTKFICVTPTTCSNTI
Source text: as §1, §2

COc1cc2c(cc1C(=O)Nc1cccc3cccnc13)CCC1C(C)(C)C(=O)C(C#N)=C[C@]21C (stereo partly shown) [N4]
mice bodyweight (PAN02-luc; measured weekly): no obvious effect
tumor metastasis suppressed compared with the control group (PAN02-luc; week 4, 10 mg/kg/d): 63.25%
tumor metastasis suppressed compared with the control group (PAN02-luc; week 4, 20 mg/kg/d): 81.16%
mice alive (PAN02-luc; week 10, 10 mg/kg/d): 40%
mice alive (PAN02-luc; week 10, 20 mg/kg/d): 80%
Kd (STAT3-SH2): 1010 nM
STAT3-dependent luciferase reporter activity (STAT3; 293T cells, IL-6, OSM or V-SRC induced): suppressed
STAT3-response luciferase activities (STAT3; PANC-1 and BXPC-3 cells, with or without IL-6 stimulation): efficiently inhibited
Kd ([1]; STAT3^127-722, value printed in figure): 2020 nM
Kd ([1]; STAT3^127–722): 2020 nM

— publication PMC7906907, “Targeting STAT3 by a small molecule suppresses pancreatic cancer progression” (Oncogene, 2021)
